Values quoted from earlier work, collected in patent EP4545067A1, “HIGHY DOSED DERMALLY […] PREPARATION HAVING AN INCREASED DRUGLOAD IN THE TARGET CO[…] IMPROVED TREATMENT OF ECTOPARASITE INFESTATION” (Infectopharm Arzneimittel und Consilium GmbH, priority 2023, dated 2025).

Details: bei 20 °C

For `CC1(C)C(C=C(Cl)Cl)C1C(=O)OCc1cccc(Oc2ccccc2)c1` (stereo not shown) [Permethrin, 3-(2,2-Dichlorethenyl)-2,2-dimethylcyclopropancarboxylsäure-(3-phenoxyphenyl)methylester], the “Löslichkeit in Wasser” value is listed as 0,2 mg·l^-1.
